For assay [1], the system named is human breast cancer MDA-MB-231 cells [人乳腺癌MDA-MB-231细胞]. Kind of assay: CCK-8 in vitro tumour cell inhibition assay, MDA-MB-231 (Example 11, Tables 2-4). The class given is cell-based.
In assay [2] the test system is skin cancer A431 cells, colon cancer HCT116 cells, gastric cancer MKN45 cells, ovarian cancer SKOV-3 cells [皮肤癌A431细胞、结肠癌HCT116细胞、胃癌MKN45细胞、卵巢癌SKOV-3细胞]. The assay can be described thus: CCK-8 in vitro tumour cell inhibition assay (Example 10, Table 1). The format is cell-based. To be noted: A431, HCT116, MKN45, SKOV-3 cells; statement on Table 1 (IC50).

Like-named read-outs stand apart in the source and are kept apart here.

Broadly, the IC50 is the midpoint of a concentration-inhibition curve. Lower therefore signals greater potency in that assay. On to `O=C1C=CC2(C=C1)OCC(=O)N2c1nc(-c2ccccc2)nn1-c1ccccc1` [LHDYX-1, 4-(1,3-二苯基-1H-1,2,4-三氮唑-5-基)-1-氧-4-氮螺[4.5]癸-6,9-二烯-3,8-二酮], for which the IC50 in assay [1] (24h) worked out at 26000 nM; in assay [1] (48h), 2880 nM; in assay [1] (72h), 340 nM. Besides, the “inhibition of cancer cells compared with doxorubicin” value in assay [2] was “对癌细胞的抑制作用高于目前临床中已广泛使用抗肿瘤药物阿霉素(Doxorubicin)”. Moreover, the “inhibitory activity on cancer cells” value in assay [2] is listed as “不同程度的抑制活性”.
In general, inhibition refers to the relative decrease from the control value, in per cent. With `COC1=CC(=O)C=CC12OCC(=O)N2c1nc(-c2ccccc2)nn1-c1ccccc1` (stereo not shown) [LHDYX-4, 4-(1,3-二苯基-1H-1,2,4-三氮唑-5-基)-6-甲氧基-1-氧-4-氮螺[4.5]癸-6,9-二烯-3,8-二酮], the inhibition at 5 µM was less than 0% in assay [1] (24h, read-out: inhibition rate (class symbol)); 4.3% in assay [1] (48h, read-out: inhibition rate); 17.2% in assay [1] (72h, read-out: inhibition rate). Besides, the inhibition at 50 µM was 42% in assay [1] (24h, read-out: inhibition rate); 98.4% in assay [1] (48h, read-out: inhibition rate); 100% in assay [1] (72h, read-out: inhibition rate).
Take `Cn1nc(N2C(=O)COC23C=CC(=O)C=C3)nc1-c1ccccc1` [LHDYX-3, 4-(1-甲基-5-苯基-1H-1,2,4-三氮唑-3-基)-1-氧-4-氮螺[4.5]癸-6,9-二烯-3,8-二酮]: the IC50 worked out at 2960 nM in assay [1] (48h) and 1460 nM in assay [1] (72h).
With `Cn1nc(-c2ccccc2)nc1N1C(=O)COC12C=CC(=O)C=C2` [LHDYX-2, 4-(1-甲基-3-苯基-1H-1,2,4-三氮唑-5-基)-1-氧-4-氮螺[4.5]癸-6,9-二烯-3,8-二酮], in assay [1] (24h, read-out: inhibition rate), the inhibition at 0.05 µM came out at 19.1%, the inhibition at 0.5 µM is 17.1%, the inhibition at 5 µM is 39.9% and the inhibition at 50 µM came out at 100%. Further, in assay [1] (48h, read-out: inhibition rate), the inhibition at 0.05 µM was 19%, the inhibition at 0.5 µM came out at 76.4%, the inhibition at 5 µM was found to be 94.7% and the inhibition at 50 µM was found to be 93.5%. In assay [1] (72h, read-out: inhibition rate), the inhibition at 0.05 µM came to 39.4%, the inhibition at 0.5 µM was 95.3%, the inhibition at 5 µM turned out to be 96.2% and the inhibition at 50 µM came out at 96.4%.

The record behind these values is patent publication CN102850337A, “多氮唑联螺烯酮类化合物及其制备方法和用途” (Sichuan University, priority 2011, dated 2013).
